Test results reported in patent publication US20260315604A1, “OTUB1 Small-Molecule Binders and OTUB1-recruiting Deubiquitinase-targeting Chimeras (DUBTACs)” (ICAHN SCHOOL OF MEDICINE AT MOUNT SINAI, priority 2023, published 2026).

Biological target: T1, Human OTUB1 wild-type (Homo sapiens, UniProt Q96FW1)
T1 construct: His tag (N); made in house; host or cells: E. coli BL21-CodonPlus (DE3)-RIPIL
Assay: Covalent modification of OTUB1 (adduct formation), mass spectrometry-based assay (OTUB1 covalent binders; selected CFTR or cGAS based bivalent compounds)
Type: binding
Details: covalent adduct formation with OTUB1 protein
Experimental: OTUB1 covalent binders were tested for their ability to form the covalent adduct with OTUB1 protein using a mass-spectrometry based assay.
Example 389. Assessment of the Covalent Modification of OTUB1 Protein by Selected OTUB1 Covalent Binders Using a Mass Spectrometry-Based Assay (FIG. 1)
OTUB1 protein (10 μM) was incubated with selecting compounds (2500 μM) at RT for 1 h. The adduct was qualified by mass spectrometry-based assays.
Example 398. Assessment of the Covalent Modification of OTUB1 Protein by Selected CFTR Based Bivalent Compounds Using Mass Spectrometry-Based Assay (FIG. 10)
OTUB1 protein (10 μM) was incubated with selecting bivalent compounds (2500 μM) at RT for 1 h. The adduct was qualified by mass spectrometry-based assays.
Human OTUB1 wild-type (NM_017670.3) and C23S mutation genes were optimized based on the codon preference of E. coli, synthesized and cloned into pET15b vector with a N-terminal His tag by Genscript, respectively. The plasmid was transferred to BL21-CodonPlus (DE3)-RIPIL Competent Cell (230280, Agilent Technologies) and the recombinant protein was induced expressed by 0.5 mM IPTG at 16° C. with shaking 200 rpm for 18 h. Induced cells were harvested by centrifugation and resuspended in cold lysis buffer (50 mM Tris-H—Cl pH 7.5, 150 mM NaCl, 25 mM imidazole pH 7.5, 0.01% IGEPAL, 5% Glycerol) in the presence of Pierce Protease Inhibitor tablets (PIA32963, Fisher Scientific) and 2 mM TCEP pH 7.5.
The cells were lysed by sonication, clarified by centrifugation, and the filtered supernatant loaded onto a 5 ml HisTrap HP affinity column (17524802, Cytiva) in AKTA system. The His-recombinant protein bound to column was washed using buffer A (50 mM Tris-HCl pH 7.5, 150 mM NaCl, 25 mM imidazole pH 7.5, 0.01% IGEPAL, 5% Glycerol) and eluted with buffer B (50 mM Tris-HCl pH 7.5, 150 mM NaCl, 250 mM imidazole pH 7.5, 0.01% IGEPAL, 5% Glycerol). The eluted fractions containing OTUB1 protein were concentrated and subjected to size exclusion chromatography using a 320 mL HiLoad 26/600 Superdex 200 pg column (28989336, Cytiva) under the buffer condition ([…] Tris-HCl pH 7.5, 150 mM NaCl, and 2 mM TCEP pH 7.5). The eluted fractions containing OTUB1 protein were concentrated, divided into aliquots and stored at −80° C. freezer for further usage.
Quality control of the OTUB1 proteins was performed by SDS-PAGE, Nanodrop and mass spectrometry.
Mass Spectrometry-Based Analysis of OTUB1-Covalent Ligand Adducts
To screen the covalent ligands, recombinant OTUB1 protein (10 μM) was respectively incubated with DMSO, EN523 or seven novel ligands (2500 μM) in reaction buffer (50 mM Tris-HCl pH 7.5, 150 mM NaCl, and 0.5 mM TCEP pH 7.5) for 1 h at room temperature.
Then, the total 500 μL reaction solution was exchanged and concentrated to 50 μL 50 mM ammonium bicarbonate with a 10 kDa MWCO centrifugal filter unit (UFC901024, Millipore) and diluted in MS buffer (30% ACN, 0.2% FA) to a final concentration of […]. Mass spectrometry detection was performed by an Agilent LC/MSD Time-Of-Flight (TOF) mass spectrometer (Agilent Technologies) equipped with an electrospray ion source. The data was analyzed by TOF Protein Confirmation Software. All experiments were performed in duplicate.

T1 sequence (Q96FW1 whole entry): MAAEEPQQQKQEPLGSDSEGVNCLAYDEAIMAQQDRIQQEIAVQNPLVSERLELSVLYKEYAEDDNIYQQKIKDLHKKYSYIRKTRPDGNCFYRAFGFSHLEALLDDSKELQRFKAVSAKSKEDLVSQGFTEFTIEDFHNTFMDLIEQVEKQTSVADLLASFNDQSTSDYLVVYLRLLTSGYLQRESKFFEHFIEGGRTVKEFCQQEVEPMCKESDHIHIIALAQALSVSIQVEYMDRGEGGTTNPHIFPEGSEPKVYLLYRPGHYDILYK

Compared with C=CC(=O)N1CCN(c2ccc(C)s2)C(=O)C1 [XS154-91, 4-acryloyl-1-(5-methylthiophen-2-yl)piperazin-2-one], Cc1ccc(N2CCN(C(=O)CCl)CC2=O)s1 [XS165-119, 4-(2-chloroacetyl)-1-(5-methylthiophen-2-yl)piperazin-2-one] is lower in “% of OTUB1 modified” value: 52% for the first, 25% for the second.

Going from C=CC(=O)N1CCN(c2ncc(C)s2)C(=O)C1 [XS154-148, 4-acryloyl-1-(5-methylthiazol-2-yl)piperazin-2-one] to Cc1cnc(N2CCN(C(=O)CCl)CC2=O)s1 [XS165-123, 4-(2-chloroacetyl)-1-(5-methylthiazol-2-yl)piperazin-2-one], the “% of OTUB1 modified” value rises from 39% to 100%.

Compared with C=CC(=O)N1C2CCC1CN(c1cccc(C)c1)C2 [XS165-33, 1-(3-(m-tolyl)-3,8-diazabicyclo[3.2.1]octan-8-yl)prop-2-en-1-one], C=CC(=O)N1CC2CCC(C1)N2c1cccc(C)c1 [XS165-54, 1-(8-(m-tolyl)-3,8-diazabicyclo[3.2.1]octan-3-yl)prop-2-en-1-one] is lower in “% of OTUB1 modified” value: 5% for the first, 1% for the second.

Going from C=CC(=O)N1CCC(=O)N(c2cccc(C)c2)CC1 [XS165-53, 1-acryloyl-4-(m-tolyl)-1,4-diazepan-5-one] to Cc1cccc(N2CCN(C(=O)/C=C/CN(C)C)CC2=O)c1 [XS165-99, (E)-4-(4-(dimethylamino)but-2-enoyl)-1-(n-tolyl)piperazin-2-one], the “% of OTUB1 modified” value rises from 5% to 38%.

Cc1cccc(N2CCN(C(=O)C#C[Si](C)(C)C)CC2=O)c1 [XS165-77, 1-(m-tolyl)-4-(3-(trimethylsilyl)propioloyl)piperazin-2-one] and Cc1cccc(N2CCN(C(=O)CCl)CC2=O)n1 [XS165-120, 4-(2-chloroacetyl)-1-(6-methylpyridin-2-yl)piperazin-2-one] are the same in “% of OTUB1 modified” value: 100% for the first, 100% for the second.

Compared with Cc1ccc(N2CCN(C(=O)/C=C/CN(C)C)CC2=O)o1 [XS165-100, (E)-4-(4-(dimethylamino)but-2-enoyl)-1-(5-methylfuran-2-yl)piperazin-2-one], Cc1ccc(N2CCN(C(=O)/C=C/CN(C)C)CC2=O)s1 [XS165-105, (E)-4-(4-(dimethylamino)but-2-enoyl)-1-(5-methylthiophen-2-yl)piperazin-2-one] is higher in “% of OTUB1 modified” value: 25% for the first, 70% for the second.

Compared with Cc1cccc(N2CCN(C(=O)/C=C/CN(C)C)CC2=O)n1 [XS165-109, (E)-4-(4-(dimethylamino)but-2-enoyl)-1-(6-methylpyridin-2-yl)piperazin-2-one], Cc1ccc(N2CCN(C(=O)/C=C/CN3CCCC3)CC2=O)s1 [XS165-154, (E)-1-(5-methylthiophen-2-yl)-4-(4-(pyrrolidin-1-yl)but-2-enoyl)piperazin-2-one] is higher in “% of OTUB1 modified” value: 10% for the first, 70% for the second.

First: Cc1cccc(N2CC3CCC(C2)N3C(=O)CCl)n1 [XS165-121, 2-chloro-1-(3-(6-methylpyridin-2-yl)-3,8-diazabicyclo[3.2.1]octan-8-yl)ethan-1-one]
Second: Cc1ccc(N2CCN(C(=O)/C=C/CN3CCCCC3)CC2=O)s1 [XS165-170, (E)-1-(5-methylthiophen-2-yl)-4-(4-(piperidin-1-yl)but-2-enoyl)piperazin-2-one]
The “% of OTUB1 modified” value of the first is higher: 100% for the first, 70% for the second.

With C=CC(=O)N1CCN(c2cnc(C)s2)C(=O)C1 [XS154-184, 4-acryloyl-1-(2-methylthiazol-5-yl)piperazin-2-one] the “% of OTUB1 modified” value was under 5%.
For C=CC(=O)N1CCN(c2cccc(C)n2)C(=O)C1 [XS159-90, 4-acryloyl-1-(6-methylpyridin-2-yl)piperazin-2-one], the “% of OTUB1 modified” value was under 5%.
With C=CC(=O)N1CCN(c2cnc(C)n2C)C(=O)C1 [XS165-30, 4-acryloyl-1-(1,2-dimethyl-1H-imidazol-5-yl)piperazin-2-one] the “% of OTUB1 modified” value was under 5%.
For Cc1ccc(N2CCN(C(=O)/C=C/CN3CCOCC3)CC2=O)s1 [XS165-155, (E)-1-(5-methylthiophen-2-yl)-4-(4-morpholinobut-2-enoyl)piperazin-2-one], the “% of OTUB1 modified” value was under 5%.
